Reference: PubChem BioAssay (NCI)
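Compound exposure: 48 hours, 5 concentrations, 96-well plates. TGI marks complete inhibition of growth.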

What was measured:
Experiment in all cases: DTP human tumour cell line panel, 48 h
TK-10 renal = tested on: TK-10 renal
UO-31 renal = tested on: UO-31 renal
NCI-H23 lung = tested on: NCI-H23 lung
CCRF-CEM leukemia = tested on: CCRF-CEM leukemia
K-562 leukemia = tested on: K-562 leukemia
MOLT-4 leukemia = tested on: MOLT-4 leukemia
HOP-92 NSCLC = tested on: HOP-92 NSCLC
COLO 205 colon = tested on: COLO 205 colon
SK-OV-3 ovarian = tested on: SK-OV-3 ovarian
UACC-257 melanoma = tested on: UACC-257 melanoma
HT29 colon = tested on: HT29 colon
KM12 colon = tested on: KM12 colon
HCC-2998 colon = tested on: HCC-2998 colon
HOP-18 NSCLC = tested on: HOP-18 NSCLC
HCT-116 colon = tested on: HCT-116 colon
U251 CNS = tested on: U251 CNS
IGROV1 ovarian = tested on: IGROV1 ovarian
NCI-H226 lung = tested on: NCI-H226 lung
HCT-15 colon = tested on: HCT-15 colon
786-0 renal = tested on: 786-0 renal
DMS 273 small cell lung = tested on: DMS 273 small cell lung
SW-620 colon = tested on: SW-620 colon
LXFL 529 NSCLC = tested on: LXFL 529 NSCLC
SNB-75 CNS = tested on: SNB-75 CNS
UACC-62 melanoma = tested on: UACC-62 melanoma
M19-MEL melanoma = tested on: M19-MEL melanoma
SN12C renal = tested on: SN12C renal
A549 NSCLC = tested on: A549 NSCLC
RPMI-8226 leukemia = tested on: RPMI-8226 leukemia
SF-295 CNS = tested on: SF-295 CNS
NCI-H522 lung = tested on: NCI-H522 lung
SK-MEL-28 melanoma = tested on: SK-MEL-28 melanoma
ACHN renal = tested on: ACHN renal
SNB-78 CNS = tested on: SNB-78 CNS
DLD-1 colon = tested on: DLD-1 colon
EKVX NSCLC = tested on: EKVX NSCLC
M14 melanoma = tested on: M14 melanoma
MALME-3M melanoma = tested on: MALME-3M melanoma
SK-MEL-5 melanoma = tested on: SK-MEL-5 melanoma
OVCAR-8 ovarian = tested on: OVCAR-8 ovarian
NCI-H460 lung = tested on: NCI-H460 lung
RXF 393 renal = tested on: RXF 393 renal
DMS 114 small cell lung = tested on: DMS 114 small cell lung
OVCAR-3 ovarian = tested on: OVCAR-3 ovarian
A498 renal = tested on: A498 renal
CAKI-1 renal = tested on: CAKI-1 renal
XF 498 CNS = tested on: XF 498 CNS
SR leukemia = tested on: SR leukemia
SF-268 CNS = tested on: SF-268 CNS
SF-539 CNS = tested on: SF-539 CNS
SK-MEL-2 melanoma = tested on: SK-MEL-2 melanoma
SNB-19 CNS = tested on: SNB-19 CNS
OVCAR-4 ovarian = tested on: OVCAR-4 ovarian
HOP-62 NSCLC = tested on: HOP-62 NSCLC
KM20L2 colon = tested on: KM20L2 colon
HL-60(TB) leukemia = tested on: HL-60(TB) leukemia
LOX IMVI melanoma = tested on: LOX IMVI melanoma
OVCAR-5 ovarian = tested on: OVCAR-5 ovarian

Measured: TGI

CC1CC(=O)C2CC(CO)=CCCC2C1(C)CC/C(=C/CO)CO (stereo not drawn)
> 100 µM: TK-10 renal | UO-31 renal | NCI-H23 lung | CCRF-CEM leukemia | K-562 leukemia | MOLT-4 leukemia | HOP-92 NSCLC | COLO 205 colon | SK-OV-3 ovarian | UACC-257 melanoma | HT29 colon | KM12 colon | HCC-2998 colon | HOP-18 NSCLC | HCT-116 colon | U251 CNS | IGROV1 ovarian | NCI-H226 lung | HCT-15 colon | 786-0 renal | DMS 273 small cell lung | SW-620 colon | LXFL 529 NSCLC | SNB-75 CNS | UACC-62 melanoma | M19-MEL melanoma | SN12C renal | A549 NSCLC | RPMI-8226 leukemia | SF-295 CNS | NCI-H522 lung | SK-MEL-28 melanoma | ACHN renal | SNB-78 CNS | DLD-1 colon | EKVX NSCLC | M14 melanoma | MALME-3M melanoma | SK-MEL-5 melanoma | OVCAR-8 ovarian | NCI-H460 lung | RXF 393 renal | DMS 114 small cell lung | OVCAR-3 ovarian | A498 renal | CAKI-1 renal

O=C1C(Cl)N(c2ccc(Cl)cc2Cl)C1c1c[nH]c2ccccc12 (stereo not drawn)
> 100 µM: TK-10 renal | UO-31 renal | XF 498 CNS | NCI-H23 lung | CCRF-CEM leukemia | K-562 leukemia | MOLT-4 leukemia | HOP-92 NSCLC | COLO 205 colon | SK-OV-3 ovarian | SR leukemia | SF-268 CNS | UACC-257 melanoma | HT29 colon | KM12 colon | HCT-116 colon | U251 CNS | SF-539 CNS | IGROV1 ovarian | SK-MEL-2 melanoma | SNB-19 CNS | SW-620 colon | LXFL 529 NSCLC | SNB-75 CNS | UACC-62 melanoma | OVCAR-4 ovarian | M19-MEL melanoma | SN12C renal | A549 NSCLC | RPMI-8226 leukemia | SF-295 CNS | NCI-H522 lung | HOP-62 NSCLC | SK-MEL-28 melanoma | KM20L2 colon | EKVX NSCLC | M14 melanoma | MALME-3M melanoma | SK-MEL-5 melanoma | HL-60(TB) leukemia | OVCAR-8 ovarian | NCI-H460 lung | RXF 393 renal | DMS 114 small cell lung | OVCAR-3 ovarian

N#CC1(Cc2ccccc2[N+](=O)[O-])c2ccccc2C2C(N1C(=O)c1ccccc1)C2(Cl)Cl (stereo not drawn)
> 100 µM: TK-10 renal | UO-31 renal | NCI-H23 lung | CCRF-CEM leukemia | K-562 leukemia | MOLT-4 leukemia | HOP-92 NSCLC | COLO 205 colon | SK-OV-3 ovarian | SF-268 CNS | UACC-257 melanoma | HT29 colon | KM12 colon | HCC-2998 colon | HOP-18 NSCLC | HCT-116 colon | U251 CNS | SF-539 CNS | IGROV1 ovarian | LOX IMVI melanoma | SK-MEL-2 melanoma | NCI-H226 lung | HCT-15 colon | 786-0 renal | DMS 273 small cell lung | SNB-19 CNS | SW-620 colon | LXFL 529 NSCLC | OVCAR-5 ovarian | SNB-75 CNS | UACC-62 melanoma | OVCAR-4 ovarian | M19-MEL melanoma | SN12C renal | A549 NSCLC | SF-295 CNS | NCI-H522 lung | SK-MEL-28 melanoma | KM20L2 colon | ACHN renal | SNB-78 CNS | DLD-1 colon | EKVX NSCLC | M14 melanoma | MALME-3M melanoma | SK-MEL-5 melanoma | OVCAR-8 ovarian | NCI-H460 lung | RXF 393 renal | DMS 114 small cell lung | OVCAR-3 ovarian | A498 renal | CAKI-1 renal

CC1(C)c2ccccc2C(C)(C)C(C(=O)Nc2ccccc2)C1C(=O)O (stereo not drawn)
> 100 µM: TK-10 renal | UO-31 renal | NCI-H23 lung | CCRF-CEM leukemia | K-562 leukemia | MOLT-4 leukemia | HOP-92 NSCLC | COLO 205 colon | SK-OV-3 ovarian | SF-268 CNS | UACC-257 melanoma | HT29 colon | KM12 colon | HCC-2998 colon | HOP-18 NSCLC | HCT-116 colon | U251 CNS | SF-539 CNS | LOX IMVI melanoma | SK-MEL-2 melanoma | NCI-H226 lung | 786-0 renal | DMS 273 small cell lung | SNB-19 CNS | SW-620 colon | LXFL 529 NSCLC | OVCAR-5 ovarian | SNB-75 CNS | UACC-62 melanoma | M19-MEL melanoma | SN12C renal | A549 NSCLC | RPMI-8226 leukemia | SF-295 CNS | NCI-H522 lung | HOP-62 NSCLC | SK-MEL-28 melanoma | KM20L2 colon | ACHN renal | SNB-78 CNS | DLD-1 colon | EKVX NSCLC | M14 melanoma | MALME-3M melanoma | SK-MEL-5 melanoma | HL-60(TB) leukemia | OVCAR-8 ovarian | RXF 393 renal | DMS 114 small cell lung | OVCAR-3 ovarian | A498 renal

O=C(c1cccs1)N(C(=S)N1CCN(c2ccccc2)CC1)C1CCCCC1
> 100 µM: TK-10 renal | UO-31 renal | NCI-H23 lung | CCRF-CEM leukemia | K-562 leukemia | MOLT-4 leukemia | HOP-92 NSCLC | COLO 205 colon | SK-OV-3 ovarian | SR leukemia | SF-268 CNS | UACC-257 melanoma | HT29 colon | KM12 colon | HOP-18 NSCLC | HCT-116 colon | U251 CNS | SF-539 CNS | IGROV1 ovarian | LOX IMVI melanoma | SK-MEL-2 melanoma | HCT-15 colon | 786-0 renal | DMS 273 small cell lung | SNB-19 CNS | SW-620 colon | LXFL 529 NSCLC | OVCAR-5 ovarian | SNB-75 CNS | UACC-62 melanoma | OVCAR-4 ovarian | M19-MEL melanoma | SN12C renal | A549 NSCLC | RPMI-8226 leukemia | SF-295 CNS | NCI-H522 lung | HOP-62 NSCLC | SK-MEL-28 melanoma | KM20L2 colon | ACHN renal | SNB-78 CNS | DLD-1 colon | M14 melanoma | MALME-3M melanoma | SK-MEL-5 melanoma | HL-60(TB) leukemia | OVCAR-8 ovarian | NCI-H460 lung | RXF 393 renal | DMS 114 small cell lung | OVCAR-3 ovarian | CAKI-1 renal
